Tests used:
Format in all cases: cell-based
[1] = biological target: T1, human TLR 8 protein (Homo sapiens, UniProt Q9NR97); assay: TLR8 Stimulation determined using HEK-Blue Detection; settings: HEK-Blue hTLR8 cells, 16 hr, percentages of maximum activation with Resiquimod or Motolimod, Table 3
T1 construct: expressed in transfected cells; host or cells: HEK293 (HEK-Blue hTLR8)
T1 sequence (Q9NR97 27-1041): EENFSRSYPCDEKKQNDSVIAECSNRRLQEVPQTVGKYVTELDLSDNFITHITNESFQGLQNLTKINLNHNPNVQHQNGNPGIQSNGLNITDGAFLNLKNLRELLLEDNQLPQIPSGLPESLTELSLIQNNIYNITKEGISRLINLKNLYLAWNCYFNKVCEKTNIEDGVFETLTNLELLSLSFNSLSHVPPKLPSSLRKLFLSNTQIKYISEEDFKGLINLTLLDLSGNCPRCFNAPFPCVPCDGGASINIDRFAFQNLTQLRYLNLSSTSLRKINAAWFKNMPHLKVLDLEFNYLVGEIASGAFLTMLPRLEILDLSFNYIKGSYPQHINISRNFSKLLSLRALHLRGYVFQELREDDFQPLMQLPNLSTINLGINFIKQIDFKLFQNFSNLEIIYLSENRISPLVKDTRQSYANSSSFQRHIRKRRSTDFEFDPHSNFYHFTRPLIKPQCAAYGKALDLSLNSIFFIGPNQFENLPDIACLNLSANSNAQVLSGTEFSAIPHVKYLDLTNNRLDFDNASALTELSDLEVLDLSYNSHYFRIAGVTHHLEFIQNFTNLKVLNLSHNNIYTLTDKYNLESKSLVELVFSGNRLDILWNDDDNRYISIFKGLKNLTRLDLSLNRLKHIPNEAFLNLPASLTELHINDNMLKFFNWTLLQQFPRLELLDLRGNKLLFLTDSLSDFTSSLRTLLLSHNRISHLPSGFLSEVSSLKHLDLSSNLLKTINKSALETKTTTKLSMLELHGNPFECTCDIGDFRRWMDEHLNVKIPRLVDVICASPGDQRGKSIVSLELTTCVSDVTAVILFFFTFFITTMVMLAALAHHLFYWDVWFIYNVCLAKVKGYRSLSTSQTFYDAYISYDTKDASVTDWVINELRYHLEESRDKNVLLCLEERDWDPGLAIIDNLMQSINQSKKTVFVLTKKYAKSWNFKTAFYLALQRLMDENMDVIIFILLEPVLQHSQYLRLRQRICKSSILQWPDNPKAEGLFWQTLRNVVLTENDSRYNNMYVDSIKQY
Text: TLR8 Stimulation determined using HEK-Blue Detection
(§1) This assay was designed for studying the stimulation of human TLR 8 protein in HEK-Blue hTLR8 tool cell line by monitoring the activation of NF-κB. HEK-Blue hTLR8 cells were obtained by co-transfection of the hTLR8 gene and an optimized secreted embryonic alkaline phosphatase (SEAP) reporter gene into HEK293 cells. The SEAP reporter gene was placed under the control of the IFN-β minimal promoter fused to five NF-κB and AP-1-binding sites. Stimulation with a TLR 8 ligand activates NF-κB and AP-1 which induce the expression of SEAP. Levels of SEAP can be easily determined with HEK-Blue Detection, a cell culture medium that allows for real-time detection of SEAP. HEK-Blue Detection contains all the nutrients necessary for cell growth and a specific SEAP color substrate. The hydrolysis of the substrate by SEAP produces a purple/blue color that can be measured with a spectrophotometer.
(§2) When growing to 50-80% confluency, HEK-Blue hTLR7/8 cells were plated into 96-well plate (costar 3599) at a density of 40000 cells/well. Then compounds were added with serial dilutions over 10 points with a 1 nM-10 uM final concentration range in 0.1% DMSO/HEK-Blue Detection. The plates were then incubated for 16 hr at 37° C. in 5% CO2. The optical density at 620-655 nm was read on BMG PHERAstar FSX instrument. The EC50 for each compound was determined by calculating the percentages of the maximum activation identified with Resiquimod or Motolimod.

[2] = biological target: T2, human TLR7 (Homo sapiens, UniProt Q9NYK1); assay: TLR7 Stimulation Determined Using HEK-Blue Detection; settings: HEK-Blue hTLR7 cells, 16 hr, percentages of maximum activation with Resiquimod, Table 1, B233-B247
T2 construct: host or cells: HEK293 (HEK-Blue hTLR7)
T2 sequence (Q9NYK1 27-1049): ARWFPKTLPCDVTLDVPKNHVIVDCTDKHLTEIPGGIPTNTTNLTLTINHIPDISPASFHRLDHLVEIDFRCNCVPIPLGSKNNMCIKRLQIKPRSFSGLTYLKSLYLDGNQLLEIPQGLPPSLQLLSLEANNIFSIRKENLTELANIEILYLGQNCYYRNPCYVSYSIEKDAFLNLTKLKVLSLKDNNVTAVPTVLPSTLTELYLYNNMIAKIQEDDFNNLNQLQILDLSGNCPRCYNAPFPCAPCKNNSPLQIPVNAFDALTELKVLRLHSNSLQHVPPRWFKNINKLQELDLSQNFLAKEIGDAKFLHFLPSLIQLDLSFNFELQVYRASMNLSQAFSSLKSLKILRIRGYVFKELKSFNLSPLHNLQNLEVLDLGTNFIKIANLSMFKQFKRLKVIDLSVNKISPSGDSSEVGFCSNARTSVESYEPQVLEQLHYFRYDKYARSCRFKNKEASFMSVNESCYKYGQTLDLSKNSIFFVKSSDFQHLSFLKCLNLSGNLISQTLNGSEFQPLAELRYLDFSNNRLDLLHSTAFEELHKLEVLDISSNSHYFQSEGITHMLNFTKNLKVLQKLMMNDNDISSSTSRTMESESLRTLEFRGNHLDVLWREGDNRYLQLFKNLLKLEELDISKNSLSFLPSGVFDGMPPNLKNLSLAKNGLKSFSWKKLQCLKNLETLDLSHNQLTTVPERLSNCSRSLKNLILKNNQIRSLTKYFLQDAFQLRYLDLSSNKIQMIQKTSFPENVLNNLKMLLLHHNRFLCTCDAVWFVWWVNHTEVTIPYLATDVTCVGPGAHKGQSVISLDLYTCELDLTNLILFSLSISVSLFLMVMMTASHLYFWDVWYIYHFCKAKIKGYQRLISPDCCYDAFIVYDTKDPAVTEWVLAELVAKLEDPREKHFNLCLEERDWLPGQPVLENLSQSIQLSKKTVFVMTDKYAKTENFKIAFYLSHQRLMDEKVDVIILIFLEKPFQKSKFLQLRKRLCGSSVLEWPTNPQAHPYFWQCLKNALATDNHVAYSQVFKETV
Text: TLR7 Stimulation Determined Using HEK-Blue Detection
as §1, with “TLR7” for “TLR 8”, “hTLR7” for “hTLR8”
as §2, with “HEK-Blue hTLR7” for “HEK-Blue hTLR7/8”, “a 0.04” for “a 1”, “nM-10 μM” for “nM-10 uM”, “5% CO2 and vortex for 30 s before measurement.” for “5% CO2.”, “with Resiquimod.” for “with Resiquimod or Motolimod.”

[3] = biological target: T2, human TLR7; assay: HEK293-Blue hTLR7 Reporter Assay (QUANTI-BLUE, SEAP readout); settings: HEK-Blue-hTLR7 cells, 24 hrs treatment, Table 1, B1-B232
How it was run: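 HEK-Blue-hTLR7 cells expressing NF-κB/AP-1-driven SEAP, 4×10^4 cells/well, treated 24 h at 37° C with increasing compound concentrations. Supernatant SEAP measured with Quanti-blue substrate (10-30 min, 37° C) at 620-655 nm; EC50 from sigmoidal dose-response fit.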

| Compound | EC50 [1] [nM] | EC50 [2] [nM] | EC50 [3] [nM] |
| --- | --- | --- | --- |
| CCCC(CO)Oc1nc(N)c2ncc(Cc3cnc(N4CCC(CNC)CC4)c(C)c3)n2n1 (stereo not shown) [Compound B235, 2-((4-amino-7-((5-methyl-6-(4-((methylamino)methyl)piperidin-1-yl)pyridin-3-yl)methyl)imidazo[2,1-f][1,2,4]triazin-2-yl)oxy)pentan-1-ol] | 3630 | 63 | – |
| CCCC(CCO)Oc1nc(N)c2ncc(Cc3ccc(C4CCNCC4)nc3F)n2n1 (stereo not shown) [Compound B242, 3-((4-amino-7-((2-fluoro-6-(piperidin-4-yl)pyridin-3 yl)methyl)imidazo[2,1-f][1,2,4]triazin-2-yl)oxy)hexan-1-ol] | 74 | 9.8 | – |
| CCC[C@H](C)Oc1nc(N)c2ncc(Cc3cnc(N4CCC(CN(C)C)CC4)c(C)c3)n2n1 [Compound B123, (S)-7-((6-(4-((dimethylamino)methyl)piperidin-1-yl)-5-methylpyridin-3-yl)methyl)-2-(pentan-2-yloxy)imidazo[2,1-f][1,2,4]triazin-4-amine] | 310 | – | 1.9 |
| CCCC(CC)Oc1nc(N)c2ncc(Cc3cnc(N4CCNCC4)c(C)c3)n2n1 (stereo not shown) [Compound B140, 2-(hexan-3-yloxy)-7-((5-methyl-6-(piperazin-1-yl)pyridin-3-yl)methyl)imidazo[2,1-f][1,2,4]triazin-4-amine] | 530 | – | 8.7 |
| CCC[C@H](C)Oc1nc(N)c2ncc(Cc3cnc(N4CCC(N(C)C)CC4)c(C)c3)n2n1 [Compound B122, (S)-7-((6-(4-(dimethylamino)piperidin-1-yl)-5-methylpyridin-3-yl)methyl)-2-(pentan-2-yloxy)imidazo[2,1-f][1,2,4]triazin-4-amine] | 262 | – | 2.6 |
| CCCC(C)Oc1nc(N)c2ncc(Cc3cnc(N4CCC(CNCCOC)CC4)c(C)c3)n2n1 (stereo not shown) [Compound B237, 7-((6-(4-(((2-methoxyethyl)amino)methyl)piperidin-1-yl)-5-methylpyridin-3-yl)methyl)-2-(pentan-2-yloxy)imidazo[2,1-f][1,2,4]triazin-4-amine] | – | 8.5 | – |
| CCC[C@H](C)Nc1nc(N)c2ncc(Cc3cnc(N4CCC(CNC)CC4)c(C)c3)n2n1 (single isomer, unassigned) [Compound B213] | > 10000 | – | 2.6 |
| CCCC(CCC)Nc1nc(N)c2ncc(Cc3cnc(N4CCC(CN(C)C)CC4)c(C)c3)n2n1 [Compound B190, 7-((6-(4-((dimethylamino)methyl)piperidin-1-yl)-5-methylpyridin-3-yl)methyl)-N2-(heptan-4-yl)imidazo[2,1-f][1,2,4]triazine-2,4-diamine] | > 10000 | – | 4.4 |
| CCC[C@H](C)Nc1nc(N)c2ncc(Cc3cnc(N4CCC(CN(C)C)CC4)c(C)c3)n2n1 (single isomer, unassigned) [Compound B147] | > 10000 | – | 2.2 |
| CCCC(CCO)Oc1nc(N)c2ncc(Cc3cnc(N4CCNCC4)c(C)c3)n2n1 (stereo not shown) [Compound B165, 3-((4-amino-7-((5-methyl-6-(piperazin-1-yl)pyridin-3-yl)methyl)imidazo[2,1-f][1,2,4]triazin-2-yl)oxy)hexan-1-ol] | 150 | – | 7 |
| CCCC(CCC)Nc1nc(N)c2ncc(Cc3cnc(N4CCN(C(=O)CN(C)C)CC4)c(C)c3)n2n1 [Compound B195, 1-(4-(5-((4-amino-2-(heptan-4-ylamino)imidazo[2,1-f] [1,2,4]triazin-7-yl)methyl)-3-methylpyridin-2-yl)piperazin-1-yl)-2-(dimethylamino)ethan-1-one] | > 10000 | – | 2.8 |
| CCC[C@H](C)Oc1nc(N)c2ncc(Cc3cnc(N4CCNCC4)c(C)c3)n2n1 [Compound B118, (S)-7-((5-methyl-6-(piperazin-1-yl)pyridin-3-yl)methyl)-2-(pentan-2-yloxy)imidazo[2,1-f][1,2,4]triazin-4-amine] | 197 | – | 3.7 |
| CCC[C@H](C)Nc1nc(N)c2ncc(Cc3cnc(N4CCN(C(=O)CN(C)C)CC4)c(C)c3)n2n1 [Compound B219, (S)-1-(4-(5-((4-amino-2-(pentan-2-ylamino)imidazo[2,1-f][1,2,4]triazin-7-yl)methyl)-3-methylpyridin-2-yl)piperazin-1-yl)-2-(dimethylamino)ethan-1-one] | > 10000 | – | 2.4 |
